{
  "source": "patent US20190111137A1",
  "about": "“METHODS FOR ANTAGONISTS OF A NON-SELECTIVE CATION CHANNEL IN NEURAL CELLS” (University of Maryland, Baltimore, priority 2007, published 2019)",
  "key": {"[1]": {"system": "TRPM4 channel", "settings": "read-out: glibenclamide block (EC50); cited from earlier work"}, "[2]": {"system": "rat model of contusion SCI", "settings": "as reported (Simard et al., 2007); cited from earlier work"}, "[3]": {"system": "reactive astrocytes", "settings": "cells exposed to Na azide to deplete ATP; cited from earlier work"}, "[4]": {"system": "rat model of contusion SCI", "experiment": "Rat model of unilateral cervical spinal cord injury (SCI)", "format": "in vivo", "settings": "24 h post-SCI"}, "[5]": {"settings": "constant infusion 75-200 ng/h; cited from earlier work"}, "[6]": {"system": "rodent models of ischemic stroke", "settings": "cited from earlier work"}, "[7]": {"system": "TRPM4", "experiment": "TRPM4 protein in bEnd.3 cells after 6-h exposure to TNFα (Western blot)", "format": "cell-based, murine", "settings": "20 ng/ml", "description": "TNFα causes up-regulation NCCa-ATP (putative TRPM4) channel in bEnd.3. In certain aspects of the invention, injury leads to NFκB activation, such as SCI, and can result in up-regulation of functional TRPM4 channels. Murine CNS microvascular endothelial cells (bEnd.3, ATTC, Rockville, Md.) were studied under control conditions and after 6-h exposure to the pro-inflammatory cytokine, TNFα (20 ng/ml), which activates NFκB. Cultures were immunolabeled for TRPM4 and TRPM5, the only 2 molecularly identified non-selective cation channels with exclusive monovalent conductivity. […] Immunolabeling for TRPM5 was negative. Western blots confirmed robust up-regulation of TRPM4 (3-fold increase, FIGS. 19C,19D)."}},
  "note": "Values joined by “and” are separate entries in the source; they are usually repeats but may differ in a detail not shown here. Identical values can stand only once. “Also recorded” adds a separate entry of the source.",
  "data": [
    {"compound": "COc1ccc(Cl)cc1C(=O)NCCc1ccc(S(=O)(=O)NC(=O)NC2CCCCC2)cc1", "note": "[glibenclamide]", "values": [
      {"measurement": "EC50", "setting": "[1]", "result": "10 to 100", "unit": "µM"},
      {"measurement": "neurological function", "setting": "[2]", "result": "significantly improves neurological outcome; also recorded: improves neurological function"},
      {"measurement": "progressive hemorrhagic necrosis", "setting": "[2]", "result": "significantly reduces progressive hemorrhagic necrosis"},
      {"measurement": "tissue loss", "setting": "[2]", "result": "significantly reduces"},
      {"measurement": "blebbing associated with cytotoxic edema", "setting": "[3]", "result": "significantly reduces blebbing"},
      {"measurement": "membrane depolarization", "setting": "[3]", "result": "blocks membrane depolarization"},
      {"measurement": "necrotic cell death", "setting": "[3]", "result": "significantly reduces necrotic cell death"},
      {"measurement": "TRPM4 expression in cord (immunolabeling)", "setting": "[4]", "result": "significantly reduced"},
      {"measurement": "predicted serum concentration", "setting": "[5]", "result": "1-3 ng/ml and 2-6 nM"},
      {"measurement": "reduction of mortality", "setting": "[6]; massive ischemic stroke with malignant cerebral edema", "result": "half"},
      {"measurement": "reduction of cerebral edema (excess water)", "setting": "[6]; massive ischemic stroke with malignant cerebral edema, low-dose, post-ischemic", "result": "half"},
      {"measurement": "reduction of lesion volume", "setting": "[6]; stroke induced by thromboemboli with delayed spontaneous reperfusion", "result": "half"}
    ]},
    {"compound": "TNFα", "values": [
      {"measurement": "up-regulation of TRPM4 (Western blots)", "setting": "[7]", "result": 3, "unit": "fold"}
    ]}
  ]
}
